# From PubChem BioAssay (NCI)
#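 All cell lines were grown in 96-well plates and treated with compound for 48 hours. At the GI50, growth is halved. TGI is the concentration that stops growth completely.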
# Legend:
# Test in all cases: NCI tumour cell line growth inhibition, 48 h
# A498 renal = tested on: A498 renal
# A549 NSCLC = tested on: A549 NSCLC
# ACHN renal = tested on: ACHN renal
# BT-549 breast = tested on: BT-549 breast
# CAKI-1 renal = tested on: CAKI-1 renal
# CCRF-CEM leukemia = tested on: CCRF-CEM leukemia
# COLO 205 colon = tested on: COLO 205 colon
# DU-145 prostate = tested on: DU-145 prostate
# EKVX NSCLC = tested on: EKVX NSCLC
# HCC-2998 colon = tested on: HCC-2998 colon
# HCT-15 colon = tested on: HCT-15 colon
# HL-60(TB) leukemia = tested on: HL-60(TB) leukemia
# HOP-62 NSCLC = tested on: HOP-62 NSCLC
# HOP-92 NSCLC = tested on: HOP-92 NSCLC
# HS 578T breast = tested on: HS 578T breast
# HT29 colon = tested on: HT29 colon
# IGROV1 ovarian = tested on: IGROV1 ovarian
# K-562 leukemia = tested on: K-562 leukemia
# KM12 colon = tested on: KM12 colon
# LOX IMVI melanoma = tested on: LOX IMVI melanoma
# M14 melanoma = tested on: M14 melanoma
# MALME-3M melanoma = tested on: MALME-3M melanoma
# MCF7 breast = tested on: MCF7 breast
# MDA-MB-231 breast = tested on: MDA-MB-231 breast
# MDA-MB-435 = tested on: MDA-MB-435
# NCI-H226 lung = tested on: NCI-H226 lung
# NCI-H23 lung = tested on: NCI-H23 lung
# NCI-H460 lung = tested on: NCI-H460 lung
# NCI-H522 lung = tested on: NCI-H522 lung
# NCI/ADR-RES ovarian = tested on: NCI/ADR-RES ovarian
# OVCAR-3 ovarian = tested on: OVCAR-3 ovarian
# OVCAR-4 ovarian = tested on: OVCAR-4 ovarian
# OVCAR-5 ovarian = tested on: OVCAR-5 ovarian
# OVCAR-8 ovarian = tested on: OVCAR-8 ovarian
# PC-3 prostate = tested on: PC-3 prostate
# RPMI-8226 leukemia = tested on: RPMI-8226 leukemia
# RXF 393 renal = tested on: RXF 393 renal
# SF-268 CNS = tested on: SF-268 CNS
# SF-295 CNS = tested on: SF-295 CNS
# SK-MEL-2 melanoma = tested on: SK-MEL-2 melanoma
# SK-MEL-28 melanoma = tested on: SK-MEL-28 melanoma
# SK-MEL-5 melanoma = tested on: SK-MEL-5 melanoma
# SK-OV-3 ovarian = tested on: SK-OV-3 ovarian
# SNB-19 CNS = tested on: SNB-19 CNS
# SR leukemia = tested on: SR leukemia
# SW-620 colon = tested on: SW-620 colon
# T-47D breast = tested on: T-47D breast
# TK-10 renal = tested on: TK-10 renal
# U251 CNS = tested on: U251 CNS
# UACC-257 melanoma = tested on: UACC-257 melanoma
# UACC-62 melanoma = tested on: UACC-62 melanoma
# UO-31 renal = tested on: UO-31 renal
# 786-0 renal = tested on: 786-0 renal
# HCT-116 colon = tested on: HCT-116 colon
# MOLT-4 leukemia = tested on: MOLT-4 leukemia
# SF-539 CNS = tested on: SF-539 CNS
# SN12C renal = tested on: SN12C renal
# SNB-75 CNS = tested on: SNB-75 CNS
compound,measurement,setting,value
O=C(O)C(O)Cc1ccccn1 (stereo unspecified),TGI,A498 renal,> 100 µM
same,TGI,A549 NSCLC,> 100 µM
same,TGI,ACHN renal,> 100 µM
same,TGI,BT-549 breast,> 100 µM
same,TGI,CAKI-1 renal,> 100 µM
same,TGI,CCRF-CEM leukemia,> 100 µM
same,TGI,COLO 205 colon,> 100 µM
same,TGI,DU-145 prostate,> 100 µM
same,TGI,EKVX NSCLC,> 100 µM
same,TGI,HCC-2998 colon,> 100 µM
same,TGI,HCT-15 colon,> 100 µM
same,TGI,HL-60(TB) leukemia,> 100 µM
same,TGI,HOP-62 NSCLC,> 100 µM
same,TGI,HOP-92 NSCLC,> 100 µM
same,TGI,HS 578T breast,> 100 µM
same,TGI,HT29 colon,> 100 µM
same,TGI,IGROV1 ovarian,> 100 µM
same,TGI,K-562 leukemia,> 100 µM
same,TGI,KM12 colon,> 100 µM
same,TGI,LOX IMVI melanoma,> 100 µM
same,TGI,M14 melanoma,> 100 µM
same,TGI,MALME-3M melanoma,> 100 µM
same,TGI,MCF7 breast,> 100 µM
same,TGI,MDA-MB-231 breast,> 100 µM
same,TGI,MDA-MB-435,> 100 µM
same,TGI,NCI-H226 lung,> 100 µM
same,TGI,NCI-H23 lung,> 100 µM
same,TGI,NCI-H460 lung,> 100 µM
same,TGI,NCI-H522 lung,> 100 µM
same,TGI,NCI/ADR-RES ovarian,> 100 µM
same,TGI,OVCAR-3 ovarian,> 100 µM
same,TGI,OVCAR-4 ovarian,> 100 µM
same,TGI,OVCAR-5 ovarian,> 100 µM
same,TGI,OVCAR-8 ovarian,> 100 µM
same,TGI,PC-3 prostate,> 100 µM
same,TGI,RPMI-8226 leukemia,> 100 µM
same,TGI,RXF 393 renal,> 100 µM
same,TGI,SF-268 CNS,> 100 µM
same,TGI,SF-295 CNS,> 100 µM
same,TGI,SK-MEL-2 melanoma,> 100 µM
same,TGI,SK-MEL-28 melanoma,> 100 µM
same,TGI,SK-MEL-5 melanoma,> 100 µM
same,TGI,SK-OV-3 ovarian,> 100 µM
same,TGI,SNB-19 CNS,> 100 µM
same,TGI,SR leukemia,> 100 µM
same,TGI,SW-620 colon,> 100 µM
same,TGI,T-47D breast,> 100 µM
same,TGI,TK-10 renal,> 100 µM
same,TGI,U251 CNS,> 100 µM
same,TGI,UACC-257 melanoma,> 100 µM
same,TGI,UACC-62 melanoma,> 100 µM
same,TGI,UO-31 renal,> 100 µM
O=C1/C(=C/c2ccc([N+](=O)[O-])o2)Oc2ccc(Br)cc21,GI50,786-0 renal,2470 nM
same,TGI,786-0 renal,5.29 µM
same,GI50,A498 renal,15.9 µM
same,TGI,A498 renal,30.1 µM
same,GI50,A549 NSCLC,18.5 µM
same,TGI,A549 NSCLC,35.3 µM
same,GI50,ACHN renal,1850 nM
same,TGI,ACHN renal,3.77 µM
same,GI50,BT-549 breast,1870 nM
same,TGI,BT-549 breast,3.5 µM
same,GI50,CAKI-1 renal,2310 nM
same,TGI,CAKI-1 renal,6.59 µM
same,GI50,CCRF-CEM leukemia,2000 nM
same,TGI,CCRF-CEM leukemia,4.97 µM
same,GI50,COLO 205 colon,2830 nM
same,TGI,COLO 205 colon,7.32 µM
same,GI50,DU-145 prostate,9.31 µM
same,TGI,DU-145 prostate,21.1 µM
same,GI50,HCC-2998 colon,8.01 µM
same,TGI,HCC-2998 colon,27.5 µM
same,GI50,HCT-116 colon,1900 nM
same,TGI,HCT-116 colon,3.46 µM
same,GI50,HCT-15 colon,2620 nM
same,TGI,HCT-15 colon,8.36 µM
same,GI50,HL-60(TB) leukemia,6.7 µM
same,TGI,HL-60(TB) leukemia,25.7 µM
same,GI50,HOP-62 NSCLC,15 µM
same,TGI,HOP-62 NSCLC,34.4 µM
same,GI50,HOP-92 NSCLC,1520 nM
same,TGI,HOP-92 NSCLC,3.1 µM
same,GI50,HS 578T breast,3.91 µM
same,TGI,HS 578T breast,26.9 µM
same,GI50,HT29 colon,2640 nM
same,TGI,HT29 colon,5.78 µM
same,GI50,IGROV1 ovarian,1940 nM
same,TGI,IGROV1 ovarian,4.1 µM
same,GI50,K-562 leukemia,1920 nM
same,TGI,K-562 leukemia,4.59 µM
same,GI50,KM12 colon,3.85 µM
same,TGI,KM12 colon,13 µM
same,GI50,LOX IMVI melanoma,1820 nM
same,TGI,LOX IMVI melanoma,3.55 µM
same,GI50,M14 melanoma,2680 nM
same,TGI,M14 melanoma,7.01 µM
same,GI50,MALME-3M melanoma,1920 nM
same,TGI,MALME-3M melanoma,4.74 µM
same,GI50,MCF7 breast,2050 nM
same,TGI,MCF7 breast,5.17 µM
same,GI50,MDA-MB-231 breast,1800 nM
same,TGI,MDA-MB-231 breast,3.84 µM
same,GI50,MDA-MB-435,1900 nM
same,TGI,MDA-MB-435,4.03 µM
same,GI50,MOLT-4 leukemia,3.07 µM
same,TGI,MOLT-4 leukemia,9.4 µM
same,GI50,NCI-H226 lung,2120 nM
same,TGI,NCI-H226 lung,5.37 µM
same,GI50,NCI-H23 lung,6.76 µM
same,TGI,NCI-H23 lung,23.1 µM
same,GI50,NCI-H460 lung,10.6 µM
same,TGI,NCI-H460 lung,24.2 µM
same,GI50,NCI-H522 lung,1880 nM
same,TGI,NCI-H522 lung,3.35 µM
same,GI50,NCI/ADR-RES ovarian,10.9 µM
same,TGI,NCI/ADR-RES ovarian,42 µM
same,GI50,OVCAR-3 ovarian,1990 nM
same,TGI,OVCAR-3 ovarian,3.56 µM
same,GI50,OVCAR-4 ovarian,2370 nM
same,TGI,OVCAR-4 ovarian,6.18 µM
same,GI50,OVCAR-5 ovarian,2570 nM
same,TGI,OVCAR-5 ovarian,9.17 µM
same,GI50,OVCAR-8 ovarian,3.01 µM
same,TGI,OVCAR-8 ovarian,9.32 µM
same,GI50,PC-3 prostate,3.52 µM
same,TGI,PC-3 prostate,15.2 µM
same,GI50,RPMI-8226 leukemia,2320 nM
same,TGI,RPMI-8226 leukemia,6.03 µM
same,GI50,RXF 393 renal,1680 nM
same,TGI,RXF 393 renal,3.21 µM
same,GI50,SF-268 CNS,2040 nM
same,TGI,SF-268 CNS,4.16 µM
same,GI50,SF-295 CNS,17.1 µM
same,TGI,SF-295 CNS,36.8 µM
same,GI50,SF-539 CNS,1890 nM
same,TGI,SF-539 CNS,4.19 µM
same,GI50,SK-MEL-2 melanoma,2240 nM
same,TGI,SK-MEL-2 melanoma,4.43 µM
same,GI50,SK-MEL-28 melanoma,2190 nM
same,TGI,SK-MEL-28 melanoma,4.83 µM
same,GI50,SK-MEL-5 melanoma,2670 nM
same,TGI,SK-MEL-5 melanoma,8.17 µM
same,GI50,SK-OV-3 ovarian,17.6 µM
same,TGI,SK-OV-3 ovarian,32.2 µM
same,GI50,SN12C renal,1960 nM
same,TGI,SN12C renal,4.53 µM
same,GI50,SNB-19 CNS,16.1 µM
same,TGI,SNB-19 CNS,30 µM
same,GI50,SNB-75 CNS,15.2 µM
same,TGI,SNB-75 CNS,52.9 µM
same,GI50,SR leukemia,770 nM
same,TGI,SR leukemia,5.52 µM
same,GI50,SW-620 colon,1690 nM
same,TGI,SW-620 colon,3.23 µM
same,GI50,T-47D breast,1920 nM
same,TGI,T-47D breast,4.39 µM
same,GI50,TK-10 renal,2110 nM
same,TGI,TK-10 renal,3.88 µM
same,GI50,U251 CNS,14.9 µM
same,TGI,U251 CNS,28.7 µM
same,GI50,UACC-257 melanoma,2000 nM
same,TGI,UACC-257 melanoma,4.38 µM
same,GI50,UACC-62 melanoma,1840 nM
same,TGI,UACC-62 melanoma,4.09 µM
same,GI50,UO-31 renal,1460 nM
same,TGI,UO-31 renal,3.02 µM
